Experimental findings from US8883137B2, “Compositions comprising selenium-rich yeast and yeast beta-glucan” (Angel Yeast Co., Ltd., priority 2008, dated 2014) are described below.

For one experiment, the system named is BALB/c mice. Put plainly: Immunity experiment: thymus weight/body weight ratio. Type of experiment: in vivo. The conditions noted are these: male BALB/c mice, gavage daily, three months; Example 1 0.50, selenium-enriched yeast 0.05, yeast beta-glucan 0.15, Vitamin C 0.20, Vitamin E 0.10 g/kg·bw. How it is done:
(§1) 60 male BALB/c mice of clean grade with body weight 18-22 g were purchased from Shanghai Xipu'er-Bikai Experimental Animal Co., Ltd. (Add: […] Physiological saline was administered to the blank group. Three months later, a plurality of immune index of mice comprising thymus weight/body weight ratio, humoral immunity function (antibody index) and cellular immune function (NK cell activity) were measured. The measurement method was the same as the method for evaluating health food.

The next experiment deals with spleen cells. Put plainly: Immunity experiment: antibody cell detection (plaque forming cells), humoral immunity function. Type of experiment: in vivo. To be noted: male BALB/c mice, gavage daily, three months; Example 1 0.50, selenium-enriched yeast 0.05, yeast beta-glucan 0.15, Vitamin C 0.20, Vitamin E 0.10 g/kg·bw. How it is done:
as §1

For another experiment, the system named is NK cell. Put plainly: Immunity experiment: NK cell activity, cellular immune function. Type of experiment: in vivo. To be noted: male BALB/c mice, gavage daily, three months; Example 1 0.50, selenium-enriched yeast 0.05, yeast beta-glucan 0.15, Vitamin C 0.20, Vitamin E 0.10 g/kg·bw. The method, then: as §1
Experiment [1] deals with lipid peroxide (malondialdehyde (MDA)). As to the kind of experiment: Anti-oxidation experiment: content of lipid peroxide (MDA). Type of experiment: in vivo, human. The method, then:
(§2) During the experiment, all the volunteers kept original living and dietary habits. […] Subsequently, the content of lipid peroxide (malondialdehyde (MDA)), superoxide dismutase (SOD) activity and glutathione peroxidase (GSH-PX) activity of the volunteers were measured. The measurement method was the same as the method for evaluating health food.

The subject of experiment [2] is superoxide dismutase (SOD). Put plainly: Anti-oxidation experiment: SOD activity. Type of experiment: in vivo, human. The method, then: as §2
Experiment [3] has as its system glutathione peroxidase (GSH-PX). As to the kind of experiment: Anti-oxidation experiment: GSH-Px activity. Type of experiment: in vivo, human. How it is done: as §2
Setting [4] is: volunteers 45-65 years, before administration (baseline).
[5] abbreviates: volunteers, after administration two times a day for three months, Example 2 500 mg, selenium-enriched yeast 150 mg, yeast beta-glucan 450 mg, Vitamin C 2.5 mg, Vitamin E 2.5 mg each time.

Regarding `O=C1O[C@H]([C@@H](O)CO)C(O)=C1O` [Vitamin C], the “Thymus weight/body weight ratio” value in the experiment with BALB/c mice came to 1.80 ± 0.57 mg/g. For the same compound, the “Antibody cell detection Quantity of plaque forming cells” value with spleen cells was 87 ± 41 /106 spleen cells. Moreover, in the experiment with NK cell, the NK cell activity is 18.18 ± 4.14%. Also, the MDA content in experiment [1] (setting [4]) turned out to be 5.77 ± 0.65 nmol/mL; in experiment [1] (setting [5]), 5.75 ± 0.60 nmol/mL. In addition, the SOD activity in experiment [2] (setting [4]) is reported as 13335.1 ± 1466.6 U/gHb; in experiment [2] (setting [5]), 13345.5 ± 1472.7 U/gHb. In addition, the results for the GSH-Px activity in experiment [3] (setting [4]) and in experiment [3] (setting [5]) were 121.6 ± 15.67 U/mL and 123.7 ± 15.33 U/mL, respectively.

Consider Vitamin E, for which, in the experiment with BALB/c mice, the “Thymus weight/body weight ratio” value was determined as 1.90 ± 0.33 mg/g. The “Antibody cell detection Quantity of plaque forming cells” value in the experiment with spleen cells is recorded as 96 ± 21 /106 spleen cells. In the experiment with NK cell, this compound came in with an NK cell activity of 18.02 ± 5.31%. For the same compound, the results for the MDA content in experiment [1] (setting [4]) and in experiment [1] (setting [5]) were 5.74 ± 0.55 nmol/mL and 5.72 ± 0.65 nmol/mL, respectively. The figures for the SOD activity in experiment [2] (setting [4]) and in experiment [2] (setting [5]) were 13297.0 ± 2193.7 U/gHb and 13375.6 ± 2014.7 U/gHb, respectively. Moreover, the results for the GSH-Px activity in experiment [3] (setting [4]) and in experiment [3] (setting [5]) were 120.8 ± 13.12 U/mL and 121.9 ± 9.78 U/mL, respectively.
